Measurements as given in patent US11459375B2, “Cyclic peptides for the treatment of Graves' disease” (advanceCOR GmbH, priority 2017, dated 2022).
Peptide text beside a SMILES is read from it.

Assays:
Format in all cases: in vivo, BALB/c mice
Ad-TSHR-immunized mice [1] = experiment: thyroid size at end of experiment in Graves' disease mouse model; conditions: 1 mg/kg IV 4-weekly
Protocol: Representative images are shown. In FIG. 4B, the effects of peptide therapy on thyroid sizes were investigated at the end of the experiment. The measurements were carried out in Ad-TSHR-immunized mice treated by either 4-weekly injections with vehicle (0.9% NaCl, “Graves' no therapy”, n=25 mice), or administrations of 1 mg/kg body weight of peptide of the invention 836 (12 mice), or of peptide 829 (13 mice), or of TSHR-Fc (18 mice), or of control peptide 835 (13 mice). In addition, age-matched immunologically naïve unimmunized mice (“healthy”, 19 animals) were investigated. The mean thyroid sizes in mm^3 are shown with SEM. Differences between groups were tested by AVOVA followed by post hoc LSD testing. ** indicates statistical significance (p<0.001) compared to the TSHR-immunized group treated with only NaCl (“Graves' no therapy”).
(§1) The study protocol used three 3-weekly immunizations (“initiation”) and followed by a “maintenance” phase with further regular 4-weekly boosts until the 9th immunisation, as described before (22). Mice were randomly assigned to therapeutic groups. Therapy (either 1 mg/kg body weight peptides or 0.9% NaCl vehicle control) was given 1 week after the 4th immunization by IV injection into a tail vein, and then continued at 4-weekly intervals, as described before for the treatment of anti-β1AR (16). The fusion protein TSHR-Fc was given IV at identical times at doses of 1 mg/kg, but had to be applied together with the histamine receptor blocker clemastin (Tavegil®) at a dose of 0.02 mg per mouse (25 g body weight) to avoid clinical symptoms of allergic reaction, which had been observed in initial pilot studies of TSHR-Fc administration in mice.
After euthanasia, dissection of the thyroid glands was performed under a stereomicroscope, as described before (22). Briefly, cross cuts at the level above the larynx and below the seventh cartilage ring were made and the glands with the tracheae and oesophagi were removed from the necks. Tissue blocks were kept in 4% neutral para-formaldehyde (PFA), washed in PBS 3 times and embedded in optimum cutting temperature (OCT) formulation (Tissue-Tek® O.C.T.™ compound, VWR Chemicals, Leuven, Belgium). Consecutive 5 μm-thick cross sections were cut at a fixed distance of 500 μm using a Leica microtome CM 1850 Cryostat (temperature at −19° C.) and mounted on Thermo Polysine slides (Thermo Scientific, Cat J2800AMNZ). […] Thyroid volumes (mm^3) were calculated from the sum of the areas of each section over the whole cutting region. Myocardial volumes (mm^3) were calculated in a similar way as described for thyroid glands from the sum of the areas of each section over whole cutting region (5 to 6 slides, depending on respective size of the hearts). […]

Ad-TSHR-immunized mice [2] = experiment: serum thyroxin (T4) levels in Graves' disease mouse model; conditions: 1 mg/kg IV 4-weekly, after start of therapy (week 11)
Protocol: In FIG. 5 the effects of peptide therapy on serum thyroxin levels were evaluated. The measurements were carried out in Ad-TSHR-immunized mice treated by either 4-weekly injections with vehicle (0.9% NaCl, “Graves' no therapy”, n=25 mice), or administrations of 1 mg/kg body weight of peptide of the invention 836 (12 mice), or of peptide 829 (13 mice), or TSHR-Fc (18 mice), or of control peptide 835 (13 mice). In addition, age-matched immunologically naïve unimmunized mice (“healthy”, 19 animals) were investigated. Data are represented as means±SEM. Significance over time was tested by analysis of variance (ANOVA) of groups at given time points, and controlled by ANOVA for repeated measurements within one group, followed by LSD post-hoc testing. *p<0.05, and **p<0.005, compared to the TSHR-immunized group treated with only NaCl (“Graves' no therapy”).
as §1
Total thyroxine (T4) was measured by immunoassay kit (#T4044T-100, Calbiotech Inc, Austin, Calif.) in duplicate determination.

Ad-TSHR-immunized mice [3] = experiment: ECG heart rates in Graves' disease mouse model; conditions: 1 mg/kg IV 4-weekly, ECG under anaesthesia
Protocol: (§2) In FIG. 7 the effect of the peptide therapy on heart rates at various times during the experiment (A), and on heart weights (B) and cardiac ventricular volumes (C) at the end of the experiment were evaluated in all animals. The measurements were carried out in Ad-TSHR-immunized mice treated by either 4-weekly injections with vehicle (0.9% NaCl, “Graves' no therapy”, n=25 mice), or administrations of 1 mg/kg body weight of peptide of the invention 836 (12 mice), or of peptide 829 (13 mice), or TSHR-Fc (18 mice). In addition, age-matched immunologically naïve unimmunized mice (“healthy”, 19 animals) were investigated. Data are represented as mean±SEM. Significance over time was tested by analysis of variance (ANOVA) of groups at given time points, and controlled by ANOVA for repeated measurements within one group, followed by LSD post-hoc testing. *p<0.05, and **p<0.005, compared to the TSHR-immunized group treated with only NaCl (“Graves' no therapy”).
When mice were subjected to anaesthesia for immunisation, their heart function was monitored with an electrocardiogram (ECG amplifier module, Harvard Apparatus, Hugo Sachs electronics) and recorded with a special software, which allows to determine the heart rate from the ECG reading (Haemodyn, Hugo Sachs electronics). ECG was also performed in anaesthesia before animals were euthanized for histological exam at the end of the study.

Ad-TSHR-immunized mice [4] = experiment: heart weights upon necropsy; conditions: 1 mg/kg IV 4-weekly, necropsy at end of experiment
Protocol: as §2
Due to unavailability of some fine histological sections, analysis of this parameter in mice treated with other peptides could unfortunately not be completed.

| Compound | thyroid size (Ad-TSHR-immunized mice [1]) | serum thyroxin (T4) levels (Ad-TSHR-immunized mice [2]) | heart rate (Ad-TSHR-immunized mice [3]) | heart weights (Ad-TSHR-immunized mice [4]) |
| --- | --- | --- | --- | --- |
| CC[C@H](C)[C@@H]1NC(=O)[C@H](C(C)C)NC(=O)[C@H]([C@@H](C)O)NC(=O)[C@H](CC(C)C)NC(=O)[C@H](Cc2ccc(O)cc2)NC(=O)[C@H](CCCCN)NC(=O)[C@H](CC(N)=O)NC(=O)[C@H](CCCCN)NC(=O)[C@H](CC(N)=O)NC(=O)[C@H](CC(C)C)NC(=O)[C@H](Cc2ccc(O)cc2)NC(=O)[C@H](C(C)C)NC(=O)[C@H](C)NC(=O)[C@H](CC(=O)O)NC(=O)[C@H](CC(C)C)NC(=O)[C@H](CCCCN)NC(=O)[C@H]([C@@H](C)O)NC(=O)CNC(=O)[C@H](CC(N)=O)NC(=O)[C@H](Cc2ccccc2)NC(=O)[C@H](C)NC(=O)[C@H](Cc2ccc(O)cc2)NC(=O)CNC(=O)[C@H](CC(=O)O)NC1=O [peptide 836] (cyclo(GYAFNGTKLDAVYLNKNKYLTVID)) | decreased thyroid sizes | progressively decreasing T4 levels, which consecutively reverted to normal values | no further increase, and significantly decreased resting heart rates at later time points | significantly reduced heart weights |
| SPPCECHQEEDFRVTCKDIQRIPS [peptide 829] | a trend which did not reach statistical significance | a trend which did not reach statistical significance | a trend which did not reach statistical significance | trends towards reduced heart weights which did not reach statistical significance |
| TSHR-Fc: fusion protein: first 289 amino acids of human TSH receptor (A-subunit), GGR linker and Fc portion of human IgG2 | decreased thyroid sizes | progressively decreasing T4 levels, which consecutively reverted to normal values | no further increase, and significantly decreased resting heart rates at later time points | trends towards reduced heart weights which did not reach statistical significance |
